For one experiment, the target named is T1, recombinant human MER (Homo sapiens, UniProt Q12866).
T1 construct: purchased Invitrogen
T1 sequence (Q12866 21-999): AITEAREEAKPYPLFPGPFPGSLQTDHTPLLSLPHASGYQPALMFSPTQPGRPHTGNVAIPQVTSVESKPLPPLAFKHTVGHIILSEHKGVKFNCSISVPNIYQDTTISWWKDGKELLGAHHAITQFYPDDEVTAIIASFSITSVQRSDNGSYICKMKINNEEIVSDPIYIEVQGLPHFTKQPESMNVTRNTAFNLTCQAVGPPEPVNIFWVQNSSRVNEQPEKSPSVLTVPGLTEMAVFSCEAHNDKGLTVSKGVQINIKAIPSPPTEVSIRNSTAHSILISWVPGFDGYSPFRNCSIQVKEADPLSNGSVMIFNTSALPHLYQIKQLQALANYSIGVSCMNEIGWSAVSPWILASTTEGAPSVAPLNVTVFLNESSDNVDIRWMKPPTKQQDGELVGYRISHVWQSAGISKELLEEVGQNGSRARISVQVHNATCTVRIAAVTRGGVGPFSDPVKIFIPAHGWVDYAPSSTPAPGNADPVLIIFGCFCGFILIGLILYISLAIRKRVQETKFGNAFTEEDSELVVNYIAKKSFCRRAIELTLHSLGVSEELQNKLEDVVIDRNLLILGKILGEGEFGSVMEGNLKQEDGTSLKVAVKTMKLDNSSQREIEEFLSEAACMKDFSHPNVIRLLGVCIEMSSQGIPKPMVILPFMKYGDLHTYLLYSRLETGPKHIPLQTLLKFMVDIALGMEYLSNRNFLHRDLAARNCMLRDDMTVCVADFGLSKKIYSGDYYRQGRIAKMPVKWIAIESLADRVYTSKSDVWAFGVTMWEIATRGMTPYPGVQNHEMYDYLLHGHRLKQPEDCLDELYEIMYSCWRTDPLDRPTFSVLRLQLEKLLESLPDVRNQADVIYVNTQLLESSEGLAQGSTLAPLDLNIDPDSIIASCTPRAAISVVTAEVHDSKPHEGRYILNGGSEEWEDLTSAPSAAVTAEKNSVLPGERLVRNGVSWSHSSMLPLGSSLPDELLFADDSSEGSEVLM
The experiment in a line: Biochemical potency, HTRF KinEASE-TK kinase assay. Particulars: 1 nM MER, 700 μM ATP. An outline of the steps: (§1)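 Compounds preincubated 1 h at RT with enzyme in 50 mM HEPES pH 7.4, 10 mM MgCl2, 0.01% BSA, 1 mM DTT; reactions then ran 2 h at RT with 5 nM AXL or 1 nM TYRO3/MER, 800 nM TK substrate-biotin, 700 μM ATP, 1% DMSO. HTRF 665/620 ratio read; percent activity calculated.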

The next experiment has as its target T2, recombinant human TYRO3 (Homo sapiens, UniProt Q06418).
T2 construct: purchased Invitrogen
T2 sequence (Q06418 41-890): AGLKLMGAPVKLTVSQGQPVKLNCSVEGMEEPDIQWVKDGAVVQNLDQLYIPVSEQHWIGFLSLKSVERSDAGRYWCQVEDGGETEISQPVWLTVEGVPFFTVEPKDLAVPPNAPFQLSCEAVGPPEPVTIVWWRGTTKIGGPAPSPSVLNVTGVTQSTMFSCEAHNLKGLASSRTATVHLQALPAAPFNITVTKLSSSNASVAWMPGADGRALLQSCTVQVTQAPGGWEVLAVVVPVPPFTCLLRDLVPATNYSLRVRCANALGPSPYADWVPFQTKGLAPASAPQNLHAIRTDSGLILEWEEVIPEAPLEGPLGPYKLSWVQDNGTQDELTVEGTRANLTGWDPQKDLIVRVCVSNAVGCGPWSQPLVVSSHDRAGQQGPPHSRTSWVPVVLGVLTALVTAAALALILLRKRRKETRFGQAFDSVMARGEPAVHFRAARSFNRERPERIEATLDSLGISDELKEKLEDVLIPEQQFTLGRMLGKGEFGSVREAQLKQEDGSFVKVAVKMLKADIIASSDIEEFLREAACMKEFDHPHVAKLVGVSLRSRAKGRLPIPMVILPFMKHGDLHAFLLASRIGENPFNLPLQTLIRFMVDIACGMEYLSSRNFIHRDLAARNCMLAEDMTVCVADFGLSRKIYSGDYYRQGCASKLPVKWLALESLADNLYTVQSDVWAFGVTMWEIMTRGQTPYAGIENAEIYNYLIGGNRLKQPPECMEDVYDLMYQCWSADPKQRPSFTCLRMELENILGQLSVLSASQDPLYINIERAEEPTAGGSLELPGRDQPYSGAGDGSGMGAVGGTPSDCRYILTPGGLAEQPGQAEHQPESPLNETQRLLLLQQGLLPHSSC
The experiment in a line: Biochemical potency, HTRF KinEASE-TK kinase assay. Particulars: 1 nM TYRO3, 700 μM ATP. An outline of the steps: as §1

Take `Cn1ccnc1-c1ccc(-c2n[nH]c3ncc(-c4ccc5c(c4)CC[C@@H](N4C6COCC4C6)CC5)cc23)cc1` [Example 111, 6-[(7S)-2-{3-[4-(1-Methyl-1H-imidazol-2-yl)phenyl]-1H-pyrazolo[3,4-b]pyridin-5-yl}-6,7,8,9-tetrahydro-5H-benzo[7]annulen-7-yl]-3-oxa-6-azabicyclo[3.1.1]heptane]: the IC50 at recombinant human MER and at recombinant human TYRO3 was < 100 nM each time.
As for `Cc1cccnc1-c1ccc(-c2n[nH]c3ncc(-c4ccc5c(c4)CC[C@@H](N[C@H]4CCCOC4)CC5)cc23)cc1` [Example 129, (3S)—N-[(7S)-2-{3-[4-(3-Methylpyridin-2-yl)phenyl]-1H-pyrazolo[3,4-b]pyridin-5-yl}-6,7,8,9-tetrahydro-5H-benzo[7]annulen-7-yl]oxan-3-amine], the IC50 on recombinant human MER and on recombinant human TYRO3 was < 100 nM throughout.
In the case of `Cc1ccnnc1-c1ccc(-c2n[nH]c3ncc(-c4ccc5c(c4)CC[C@@H](N4C6COCC4C6)CC5)cc23)cc1` [Example 176, 6-[(7S)-2-{3-[4-(4-Methylpyridazin-3-yl)phenyl]-1H-pyrazolo[3,4-b]pyridin-5-yl}-6,7,8,9-tetrahydro-5H-benzo[7]annulen-7-yl]-3-oxa-6-azabicyclo[3.1.1]heptane], the IC50 on recombinant human MER and on recombinant human TYRO3 was < 100 nM in each case.
With `Cc1ccc(C)c(-c2ccc(-c3n[nH]c4ncc(-c5ccc6c(c5)CC[C@@H](N5C7COCC5C7)CC6)cc34)cc2)n1` [Example 120, 6-[(7S)-2-{3-[4-(3,6-Dimethylpyridin-2-yl)phenyl]-1H-pyrazolo[3,4-b]pyridin-5-yl}-6,7,8,9-tetrahydro-5H-benzo[7]annulen-7-yl]-3-oxa-6-azabicyclo[3.1.1]heptane], the IC50 is 100 to 1000 nM on recombinant human MER and < 100 nM at recombinant human TYRO3.
For `Cc1ccccc1-c1ccc(-c2n[nH]c3ncc(-c4ccc5c(c4)CC[C@@H](N4C6COCC4C6)CC5)cc23)nc1` [Example 98, 6-[(7S)-2-{3-[5-(2-Methylphenyl)pyridin-2-yl]-1H-pyrazolo[3,4-b]pyridin-5-yl}-6,7,8,9-tetrahydro-5H-benzo[7]annulen-7-yl]-3-oxa-6-azabicyclo[3.1.1]heptane], the IC50 at recombinant human MER and at recombinant human TYRO3 was > 1000 nM each time.
`c1cnc(-c2ccc(-c3n[nH]c4ncc(-c5ccc6c(c5)CC[C@@H](N5C7COCC5C7)CC6)cc34)cc2)c(O[C@@H]2CCOC2)c1` [Example 104, 6-[(7S)-2-[3-(4-{3-[(3R)—Oxolan-3-yloxy]pyridin-2-yl}phenyl)-1H-pyrazolo[3,4-b]pyridin-5-yl]-6,7,8,9-tetrahydro-5H-benzo[7]annulen-7-yl]-3-oxa-6-azabicyclo[3.1.1]heptane]: the IC50 at recombinant human MER and on recombinant human TYRO3 was 100 to 1000 nM throughout.
Turning to `Cc1cccnc1-c1ccc(-c2c[nH]c3ncc(-c4ccc5c(c4)CC[C@@H](N[C@H]4CCCOC4)CC5)cc23)cc1` [Example 186, (3S)—N-[(7S)-2-{3-[4-(3-Methylpyridin-2-yl)phenyl]-1H-pyrrolo[2,3-b]pyridin-5-yl}-6,7,8,9-tetrahydro-5H-benzo[7]annulen-7-yl]oxan-3-amine], the IC50 at recombinant human MER and at recombinant human TYRO3 was < 100 nM throughout.
Turning to `Cc1cccnc1-c1ccc(-c2n[nH]c3ncc(-c4ccc5c(c4)CC[C@@](C)(N4CCC[C@H]4C)CC5)cc23)nc1` [Example 105, 3-Methyl-6′-{5-[(7S)-7-methyl-7-[(2R)-2-methylpyrrolidin-1-yl]-6,7,8,9-tetrahydro-5H-benzo[7]annulen-2-yl]-1H-pyrazolo[3,4-b]pyridin-3-yl}-2,3′-bipyridine], the IC50 on recombinant human MER and on recombinant human TYRO3 was < 100 nM in each case.
Turning to `Cc1cccnc1-c1ccc(-c2n[nH]c3ncc(-c4ccc5c(c4)CC[C@@H](N4C6COCC4C6)CC5)cc23)nc1` [Example 26, 3-Methyl-6′-{5-[(7S)-7-{3-oxa-6-azabicyclo[3.1.1]heptan-6-yl}-6,7,8,9-tetrahydro-5H-benzo[7]annulen-2-yl]-1H-pyrazolo[3,4-b]pyridin-3-yl}-2,3′-bipyridine], the IC50 at recombinant human MER and at recombinant human TYRO3 was 100 to 1000 nM each time.
`CC(C)(O)c1ccccc1-c1ccc(-c2n[nH]c3ncc(-c4ccc5c(c4)CC[C@@H](N4C6COCC4C6)CC5)cc23)cn1` [Example 113, 2-[2-(5-{5-[(7S)-7-{3-Oxa-6-azabicyclo[3.1.1]heptan-6-yl}-6,7,8,9-tetrahydro-5H-benzo[7]annulen-2-yl]-1H-pyrazolo[3,4-b]pyridin-3-yl}pyridin-2-yl)phenyl]propan-2-ol]: the IC50 on recombinant human MER and on recombinant human TYRO3 was 100 to 1000 nM in each case.
Regarding `c1ccc(-c2ccc(-c3c[nH]c4ncc(-c5ccc6c(c5)CC[C@@H](N[C@H]5CCCOC5)CC6)cc34)cc2)nc1` [Example 32, (3S)—N-[(7S)-3-[3-(4-Pyridin-2-ylphenyl)-1H-pyrrolo[2,3-b]pyridin-5-yl]-6,7,8,9-tetrahydro-5H-benzo[7]annulen-7-yl]oxan-3-amine], the IC50 on recombinant human MER and at recombinant human TYRO3 was 100 to 1000 nM each time.
For `c1ccc(-c2ccc(-c3c[nH]c4ncc(-c5ccc6c(c5)CC[C@@H](N5C7COCC5C7)CC6)cc34)cc2)nc1` [Example 155, 6-[(7S)-2-{3-[4-(Pyridin-2-yl)phenyl]-1H-pyrrolo[2,3-b]pyridin-5-yl}-6,7,8,9-tetrahydro-5H-benzo[7]annulen-7-yl]-3-oxa-6-azabicyclo[3.1.1]heptane], the IC50 at recombinant human MER is > 1000 nM; on recombinant human TYRO3, 100 to 1000 nM.
Taken in the same sequence, the figures for `Cc1cccnc1-c1ccc(-c2n[nH]c3ncc(-c4ccc5c(c4)CC[C@@](C)(N4CCC[C@H]4C)CC5)cc23)cc1` [Example 163, 3-Methyl-2-(4-{5-[(7S)-7-methyl-7-[(2R)-2-methylpyrrolidin-1-yl]-6,7,8,9-tetrahydro-5H-benzo[7]annulen-2-yl]-2H-pyrazolo[3,4-b]pyridin-3-yl}phenyl)pyridine] were < 100 nM and < 100 nM.
With `C[C@@H]1COC(=O)N1c1cccnc1-c1ccc(-c2n[nH]c3ncc(-c4ccc5c(c4)CC[C@@H](N4C6COCC4C6)CC5)cc23)cc1` [Example 124, (4R)-4-Methyl-3-[2-(4-{5-[(7S)-7-{3-oxa-6-azabicyclo[3.1.1]heptan-6-yl}-6,7,8,9-tetrahydro-5H-benzo[7]annulen-2-yl]-1H-pyrazolo[3,4-b]pyridin-3-yl}phenyl)pyridin-3-yl]-1,3-oxazolidin-2-one], the IC50 on recombinant human MER and on recombinant human TYRO3 was < 100 nM throughout.
For the compound `Cc1cc(-c2ncccc2C)ccc1-c1n[nH]c2ncc(-c3ccc4c(c3)CC[C@@H](N3C5COCC3C5)CC4)cc12` [Example 30, 6-[(7S)-3-[3-[2-Methyl-4-(3-methylpyridin-2-yl)phenyl]-1H-pyrazolo[3,4-b]pyridin-5-yl]-6,7,8,9-tetrahydro-5H-benzo[7]annulen-7-yl]-3-oxa-6-azabicyclo[3.1.1]heptane], the IC50 was > 1000 nM on recombinant human MER and < 100 nM at recombinant human TYRO3.

By IC50 is commonly meant the concentration needed to halve the response being measured.
